Source: patent US20260176320A1, “MODULATORS OF G-PROTEIN COUPLED RECEPTORS” (priority 2018, published 2026)
Read-outs that look alike come from different tables or passages of the source.

How the values were obtained:
Assay type in all cases: cell-based
[1] = target: T1, GLP-1R (Homo sapiens, UniProt P43220); assay: HitHunter cAMP assay (GLP-1R); settings: cAMP; for EC50: EC50 GLP-1R/nM; for Emax: read-out: (Emax) GLP-1R
Outline: (§1)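 Duplicate 22-point, 2-fold agonist titrations applied to receptor-expressing suspension cells in IBMX-containing HBSS; 30 min RT stimulation. Read: luminescent cAMP immunocompetition after O/N dark incubation.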

[2] = target: T2, GIP-R (Homo sapiens, UniProt P48546); assay: HitHunter cAMP assay (GIP-R); settings: cAMP; for EC50: EC50 GIP-R/nM; for Emax: read-out: (Emax) GIP-R
T2 sequence (P48546 22-466): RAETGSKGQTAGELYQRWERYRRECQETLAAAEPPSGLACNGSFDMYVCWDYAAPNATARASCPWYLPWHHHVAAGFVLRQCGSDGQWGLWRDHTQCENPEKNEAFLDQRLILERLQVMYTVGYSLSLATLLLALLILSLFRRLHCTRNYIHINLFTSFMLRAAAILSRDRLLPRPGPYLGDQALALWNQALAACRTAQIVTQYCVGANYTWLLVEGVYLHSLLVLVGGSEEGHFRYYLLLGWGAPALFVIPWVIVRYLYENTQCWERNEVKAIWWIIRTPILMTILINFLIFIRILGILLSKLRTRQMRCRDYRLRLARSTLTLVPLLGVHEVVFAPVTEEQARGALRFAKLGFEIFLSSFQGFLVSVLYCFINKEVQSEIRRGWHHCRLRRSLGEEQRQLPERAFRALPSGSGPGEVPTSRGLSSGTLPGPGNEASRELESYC
Outline: as §1

[3] = target: T1, GLP-1R; assay: PathHunter β-arrestin assay
Outline: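 Following a 90 min agonist exposure at 37 °C in 0.2% BSA medium, β-arrestin coupling was detected by chemiluminescence after 3 h at room temperature.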

T1 sequence (P43220 24-463): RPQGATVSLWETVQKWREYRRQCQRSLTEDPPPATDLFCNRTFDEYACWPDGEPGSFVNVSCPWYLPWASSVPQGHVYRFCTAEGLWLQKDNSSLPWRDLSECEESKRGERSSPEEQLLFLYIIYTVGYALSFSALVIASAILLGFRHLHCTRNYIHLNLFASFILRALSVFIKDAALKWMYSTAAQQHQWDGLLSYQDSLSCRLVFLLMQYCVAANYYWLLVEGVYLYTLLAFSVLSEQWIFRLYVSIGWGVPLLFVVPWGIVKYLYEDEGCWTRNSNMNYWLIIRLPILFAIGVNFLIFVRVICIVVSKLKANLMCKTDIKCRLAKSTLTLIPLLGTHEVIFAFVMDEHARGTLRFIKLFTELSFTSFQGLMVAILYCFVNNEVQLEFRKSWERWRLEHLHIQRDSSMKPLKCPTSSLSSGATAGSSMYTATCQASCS

| Structure (SMILES) | EC50 ([1]; Table 3) [nM] | EC50 ([1]; Table 3A) [nM] | Emax ([1]; Table 3) [%] | Emax ([1]; Table 3A) [%] | EC50 ([2]; Table 3) [nM] | EC50 ([2]; Table 3A) [nM] | Emax ([2]; Table 3) [%] | Emax ([2]; Table 3A) [%] | EC50 [3] [nM] | Emax at 1 µM ([2]; read-out: (Emax) GIP-R at 1 μM, Table 3) [%] | Emax at 1 µM ([2]; read-out: (Emax) GIP-R at 1 μM, Table 3A) [%] |
| --- | --- | --- | --- | --- | --- | --- | --- | --- | --- | --- | --- |
| CCCCCCCCCCCCCCCC(=O)N[C@@H](CCC(=O)NCCCC[C@H](NC(=O)[C@H](CO)NC(=O)[C@@H]1CCCN1C(=O)[C@@H]1CCCN1C(=O)[C@@H]1CCCN1C(=O)[C@H](C)NC(=O)CNC(=O)[C@H](CO)NC(=O)[C@H](CO)NC(=O)[C@@H]1CCCN1C(=O)CNC(=O)CNC(=O)[C@H](C)NC(=O)[C@H](CC(C)C)NC(=O)[C@H](CC(C)C)NC(=O)[C@H](Cc1c[nH]c2ccccc12)NC(=O)[C@H](CC(N)=O)NC(=O)[C@@H](NC(=O)[C@H](Cc1ccccc1)NC(=O)[C@H](CCC(=O)O)NC(=O)C(C)(C)NC(=O)[C@H](C)NC(=O)[C@H](C)NC(=O)[C@H](CCC(N)=O)NC(=O)[C@H](CCCCN)NC(=O)[C@H](CC(=O)O)NC(=O)[C@H](CC(C)C)NC(=O)[C@H](Cc1ccc(O)cc1)NC(=O)[C@@H](NC(=O)[C@H](CO)NC(=O)[C@H](Cc1ccc(O)cc1)NC(=O)[C@H](CC(=O)O)NC(=O)[C@H](CO)NC(=O)[C@@H](NC(=O)[C@H](Cc1ccccc1)NC(=O)[C@@H](NC(=O)CNC(=O)[C@H](CCC(=O)O)NC(=O)CSCC(=O)N(C)CCN1C(=O)CSC1=O)[C@@H](C)O)[C@@H](C)O)[C@@H](C)CC)C(C)C)C(N)=O)C(=O)O [Compound 93] | 0.1 to 1 | 0.1 to 1 | 99 | 99 | 1 to 10 | 1 to 10 | 73 | 73 | > 1000 | – | – |
| CCCCCCCCCCCCCCCC(=O)N[C@@H](CCC(=O)NCCCC[C@H](NC(=O)[C@H](CO)NC(=O)[C@@H]1CCCN1C(=O)[C@@H]1CCCN1C(=O)[C@@H]1CCCN1C(=O)[C@H](C)NC(=O)CNC(=O)[C@H](CO)NC(=O)[C@H](CO)NC(=O)[C@@H]1CCCN1C(=O)CNC(=O)CNC(=O)[C@H](C)NC(=O)[C@H](CC(C)C)NC(=O)[C@H](CC(C)C)NC(=O)[C@H](Cc1c[nH]c2ccccc12)NC(=O)[C@H](CC(N)=O)NC(=O)[C@@H](NC(=O)[C@H](Cc1ccccc1)NC(=O)[C@H](CCC(=O)O)NC(=O)C(C)(C)NC(=O)[C@H](C)NC(=O)[C@H](C)NC(=O)[C@H](CCC(N)=O)NC(=O)[C@H](CCCCN)NC(=O)[C@H](CC(=O)O)NC(=O)[C@H](CC(C)C)NC(=O)[C@H](Cc1ccc(O)cc1)NC(=O)[C@@H](NC(=O)[C@H](CO)NC(=O)[C@H](Cc1ccc(O)cc1)NC(=O)[C@H](CC(=O)O)NC(=O)[C@H](CO)NC(=O)[C@@H](NC(=O)[C@H](Cc1ccccc1)NC(=O)[C@@H](NC(=O)CNC(=O)[C@H](CCC(=O)O)NC(=O)CSCC(=O)NCCN1C(=O)SC(C)(C)C1=O)[C@@H](C)O)[C@@H](C)O)[C@@H](C)CC)C(C)C)C(N)=O)C(=O)O [Compound 94] | 1 to 10 | 1 to 10 | 89 | 89 | 1 to 10 | 1 to 10 | 46 | 46 | > 1000 | – | – |
| CCCCCCCCCCCCCCCC(=O)N[C@@H](CCC(=O)NCCCC[C@H](NC(=O)[C@H](CO)NC(=O)[C@@H]1CCCN1C(=O)[C@@H]1CCCN1C(=O)[C@@H]1CCCN1C(=O)[C@H](C)NC(=O)CNC(=O)[C@H](CO)NC(=O)[C@H](CO)NC(=O)[C@@H]1CCCN1C(=O)CNC(=O)CNC(=O)[C@H](C)NC(=O)[C@H](CC(C)C)NC(=O)[C@H](CC(C)C)NC(=O)[C@H](Cc1c[nH]c2ccccc12)NC(=O)[C@H](CC(N)=O)NC(=O)[C@@H](NC(=O)[C@H](Cc1ccccc1)NC(=O)[C@H](CCC(=O)O)NC(=O)C(C)(C)NC(=O)[C@H](C)NC(=O)[C@H](C)NC(=O)[C@H](CCC(N)=O)NC(=O)[C@H](CCCCN)NC(=O)[C@H](CC(=O)O)NC(=O)[C@H](CC(C)C)NC(=O)[C@H](Cc1ccc(O)cc1)NC(=O)[C@@H](NC(=O)[C@H](CO)NC(=O)[C@H](Cc1ccc(O)cc1)NC(=O)[C@H](CC(=O)O)NC(=O)[C@H](CO)NC(=O)[C@@H](NC(=O)[C@H](Cc1ccccc1)NC(=O)[C@@H](NC(=O)CNC(=O)[C@H](CCC(=O)O)NC(=O)CSCC(=O)NCCN1C(=O)[C@H]2CC[C@H]2C1=O)[C@@H](C)O)[C@@H](C)O)[C@@H](C)CC)C(C)C)C(N)=O)C(=O)O [Compound 97] | 1 to 10 | 1 to 10 | 99 | 99 | 0.1 to 1 | 0.1 to 1 | 93 | 93 | > 1000 | – | – |
| CCCCCCCCCCCCCCCC(=O)N[C@@H](CCC(=O)NCCCC[C@H](NC(=O)[C@H](CO)NC(=O)[C@@H]1CCCN1C(=O)[C@@H]1CCCN1C(=O)[C@@H]1CCCN1C(=O)[C@H](C)NC(=O)CNC(=O)[C@H](CO)NC(=O)[C@H](CO)NC(=O)[C@@H]1CCCN1C(=O)CNC(=O)CNC(=O)[C@H](C)NC(=O)[C@H](CC(C)C)NC(=O)[C@H](CC(C)C)NC(=O)[C@H](Cc1c[nH]c2ccccc12)NC(=O)[C@H](CC(N)=O)NC(=O)[C@@H](NC(=O)[C@H](Cc1ccccc1)NC(=O)[C@H](CCC(=O)O)NC(=O)C(C)(C)NC(=O)[C@H](C)NC(=O)[C@H](C)NC(=O)[C@H](CCC(N)=O)NC(=O)[C@H](CCCCN)NC(=O)[C@H](CC(=O)O)NC(=O)[C@H](CC(C)C)NC(=O)[C@H](Cc1ccc(O)cc1)NC(=O)[C@@H](NC(=O)[C@H](CO)NC(=O)[C@H](Cc1ccc(O)cc1)NC(=O)[C@H](CC(=O)O)NC(=O)[C@H](CO)NC(=O)[C@@H](NC(=O)[C@H](Cc1ccccc1)NC(=O)[C@@H](NC(=O)CNC(=O)[C@H](CCC(=O)O)NC(=O)CSCC(=O)NCCN1C(=O)CC(C)(C)C1=O)[C@@H](C)O)[C@@H](C)O)[C@@H](C)CC)C(C)C)C(N)=O)C(=O)O [Compound 104] | 1 to 10 | 1 to 10 | 104 to 106 | 104 to 106 | 1 to 10 | 1 to 10 | 43 to 47 | 43 to 47 | > 1000 | – | – |
| CC[C@H](C)[C@H](NC(=O)[C@H](CO)NC(=O)[C@H](Cc1ccc(O)cc1)NC(=O)[C@H](CC(=O)O)NC(=O)[C@H](CO)NC(=O)[C@@H](NC(=O)[C@H](Cc1ccccc1)NC(=O)[C@@H](NC(=O)CNC(=O)[C@H](CCC(=O)O)NC(=O)CSCC(=O)NCCn1c(C)cc(C)cc1=O)[C@@H](C)O)[C@@H](C)O)C(=O)N[C@@H](Cc1ccc(O)cc1)C(=O)N[C@@H](CC(C)C)C(=O)N[C@@H](CC(=O)O)C(=O)N[C@@H](CCCCN)C(=O)N[C@@H](CCC(N)=O)C(=O)N[C@@H](C)C(=O)N[C@@H](C)C(=O)NC(C)(C)C(=O)N[C@@H](CCC(=O)O)C(=O)N[C@@H](Cc1ccccc1)C(=O)N[C@H](C(=O)N[C@@H](CC(N)=O)C(=O)N[C@@H](Cc1c[nH]c2ccccc12)C(=O)N[C@@H](CC(C)C)C(=O)N[C@@H](CC(C)C)C(=O)N[C@@H](C)C(=O)NCC(=O)NCC(=O)N1CCC[C@H]1C(=O)N[C@@H](CO)C(=O)N[C@@H](CO)C(=O)NCC(=O)N[C@@H](C)C(=O)N1CCC[C@H]1C(=O)N1CCC[C@H]1C(=O)N1CCC[C@H]1C(=O)N[C@@H](CO)C(=O)N[C@@H](CCCCN)C(N)=O)C(C)C [Compound 111] | 10 to 100 | 10 to 100 | 94 | 94 | 10 to 100 | 100 to 1000 | – | – | > 1000 | 12 | 12 |
